The record followed here is patent US20090156582A1, “Pyrazole Compound” (priority 2005, published 2009).

In the test the target is T1, recombinant GSK3β enzyme (human GSK3β) (Homo sapiens, UniProt P49841).
T1 construct: FLAG (N); made in house; host or cells: Sf-21 insect cells, recombinant baculovirus (pFASTBAC1 / BAC-TO-BAC)
T1 sequence (P49841 whole entry): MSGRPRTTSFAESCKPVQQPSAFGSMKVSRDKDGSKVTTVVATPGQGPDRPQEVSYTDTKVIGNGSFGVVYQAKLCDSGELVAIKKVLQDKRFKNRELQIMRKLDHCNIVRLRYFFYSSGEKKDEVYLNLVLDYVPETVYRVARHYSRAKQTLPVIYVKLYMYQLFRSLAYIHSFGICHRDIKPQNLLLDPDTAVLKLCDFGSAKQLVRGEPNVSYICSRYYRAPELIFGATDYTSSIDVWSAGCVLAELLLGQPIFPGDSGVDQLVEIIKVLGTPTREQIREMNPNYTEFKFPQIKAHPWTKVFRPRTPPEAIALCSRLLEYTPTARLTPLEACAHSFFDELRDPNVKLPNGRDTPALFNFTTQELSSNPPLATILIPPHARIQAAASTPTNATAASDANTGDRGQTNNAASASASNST
Put plainly: Measurement of GSK3β inhibitory activity. In kind it is biochemical. The settings on record: glycogen synthase peptide substrate, Kinase Glo luminescence, read-out: IC50 (concentration of test compound needed for 50% inhibition of luminescent intensity), GSK3β inhibitory activity. An excerpt: Human GSK3β gene was cloned by a PCR method using a primer set:
prepared using human brain cDNA (Clontech; trade name: QUICK-Clone cDNA) as a template and in reference to the base sequence of GSK3β gene registered in GenBank under Accession Number NM_002093.
PCR was done according to the protocol attached to KOD plus DNA polymerase (Toyo Boseki Kabushiki Kaisha). The obtained PCR product was electrophoresed on agarose gel (1%), and 1.2 kb of DNA fragment including GSK3β gene was collected from the gel and then digested with restriction enzymes EcoR I and Sal I. The restriction enzyme-treated DNA was electrophoresed on agarose gel (1%). The obtained DNA fragment was collected, and ligated to the plasmid pFASTBAC1 (Invitrogen), which had been digested with restriction enzyme EcoR I and Sal I, to produce expression plasmid pFB-GSK3B. The base sequence of insertion fragment was confirmed to find that it corresponded to the objective sequence. In addition, virus stock BAC-GSK3B of recombinant Baculovirus was prepared using BAC-TO-BAC Baculovirus Expression System (Invitrogen).
Sf-21 cells (Invitrogen) were seeded on Sf-900 II SFM medium (Invitrogen)(150 ml) containing 10% fetal calf serum at 1×10^6 cells/ml, and cultured at 27° C. for 24 hr. The virus stock […] obtained above of recombinant Baculovirus was added by 150 μl to the obtained culture medium, and the cells were cultured for another 60 hr. The culture medium was centrifuged (3000 rpm, 10 min) to separate the cells, and the cells were washed once with PBS. The cells were suspended in 10 ml of cell lysis buffer (25 mM HEPES (pH 7.5), 1% Triton X, 130 mM sodium chloride, 1 mM EDTA, 1 mM Dithiothreitol, 25 mM β-glycerophosphate, Protease inhibitor Complete (Boehringer), 1 mM Sodium orthovanadate), treated 4 times using a homogenizer (POLYTRON) at 20000 rpm for 30 sec to disrupt the cells. The disrupted solution of cells was centrifuged (40000 rpm, 45 min.), and GSK3β was purified from the obtained supernatant using Anti-FLAG M2 Affinity Gel (Sigma Ltd.).
10 μl of ATP solution (2.5 μM ATP) was added to the obtained mixture, and the mixture was reacted at room temperature for 30 min. Kinase Glo Reagent (Promega) (50 μl) was added to the reaction solution to stop the reaction. After reaction at room temperature for 10 min, the luminescent intensity was measured using ARVO multilabel counter (PerkinElmer Life Sciences). The concentrations of the test compounds needed for 50% inhibition of luminescent intensity (IC50 value) were calculated by PRISM 3.0 (GraphPad Software).
As to `CC(C)OCCCNC(=O)c1n[nH]cc1NC(=O)c1ccccn1` [Example 353, N-(3-(((3-isopropoxypropyl)amino)carbonyl)-1H-pyrazol-4-yl)pyridine-2-carboxamide], the IC50 is under 100 nM.

As to `CCCN(CCC)S(=O)(=O)c1ccc(C(=O)Nc2c[nH]nc2C(=O)NC(C)C)cc1` [compound 033], the IC50 was determined as 171 nM.

On to `CC(C)OCCNC(=O)c1n[nH]cc1NC(=O)c1ccccc1` [Example 424, 4-(benzoylamino)-N-(2-isopropoxyethyl)-1H-pyrazole-3-carboxamide], for which the IC50 was under 100 nM.

For the molecule `CC(=O)Nc1cccc(C(=O)Nc2c[nH]nc2C(=O)NCCS(=O)(=O)c2ccc(Cl)cc2)c1` [Example 383, 4-((3-(acetylamino)benzoyl)amino)-N-(2-((4-chlorophenyl)sulfonyl)ethyl)-1H-pyrazole-3-carboxamide], the IC50 was under 100 nM.

Take `CC(C)NC(=O)c1n[nH]cc1NC(=O)C(c1ccccc1)c1ccccc1` [compound 019]: the IC50 is under 100 nM.

As to `O=C(NC1CCCC1)c1n[nH]cc1NC(=O)c1c[nH]c2ccccc12` [compound 078], the IC50 is under 100 nM.

Turning to `O=C(Nc1c[nH]nc1C(=O)NC1CCCC1)c1cnccn1` [compound 079], the IC50 was under 100 nM.

On to `O=C(Nc1ccccc1)c1n[nH]cc1NC(=O)C1CCCCC1` [compound 084], for which the IC50 was under 100 nM.

Regarding `CC(C)NC(=O)c1n[nH]cc1NC(=O)c1ccc(-c2ccccc2)cc1` [compound 028], the IC50 was under 100 nM.

For the molecule `CC(C)NC(=O)c1n[nH]cc1NC(=O)Cc1c[nH]c2ccccc12` [compound 026], the IC50 was found to be 169 nM.

Take `CC(C)NC(=O)c1n[nH]cc1NC(=O)c1cnccn1` [compound 037]: the IC50 is under 100 nM.

Consider `O=C(Nc1c[nH]nc1C(=O)NCCNc1ccccc1)c1ccccn1` [Example 399, N-(3-(((2-anilinoethyl)amino)carbonyl)-1H-pyrazol-4-yl)pyridine-2-carboxamide], for which the IC50 was under 100 nM.

`O=C(Nc1c[nH]nc1C(=O)NC1CCCCC1)c1ccccn1` [Example 349, N-(3-((cyclohexylamino)carbonyl)-1H-pyrazol-4-yl)pyridine-2-carboxamide]: the IC50 is under 100 nM.

Turning to `CC(C)NC(=O)c1n[nH]cc1NC(=O)c1ccc(F)cc1F` [compound 031], the IC50 was under 100 nM.

`O=C(/C=C/c1ccccc1)Nc1c[nH]nc1C(=O)NCCc1ccccc1` [Example 127, N-(2-phenylethyl)-4-{[(2E)-3-phenylprop-2-enoyl]amino}-1H-pyrazole-3-carboxamide]: the IC50 is under 100 nM.

For the molecule `CCOCC(=O)Nc1c[nH]nc1C(=O)NCc1ccccc1` [Example 103, N-benzyl-4-[(ethoxyacetyl)amino]-1H-pyrazole-3-carboxamide], the IC50 was under 100 nM.

On to `CC(=O)Nc1cccc(C(=O)Nc2c[nH]nc2C(=O)NC(C)C)c1` [compound 034], for which the IC50 was under 100 nM.

`COc1ccccc1CC(=O)Nc1c[nH]nc1C(=O)NC1CCCC1` [compound 068]: the IC50 was under 100 nM.

For the molecule `O=C(Cc1c[nH]c2ccccc12)Nc1c[nH]nc1C(=O)NC1CCCC1` [compound 069], the IC50 is under 100 nM.

In the case of `O=C(Nc1c[nH]nc1C(=O)NCc1ccco1)c1ccc(C(F)(F)F)cc1` [compound 154], the IC50 came out at 271 nM.

In the case of `O=C(Nc1c[nH]nc1C(=O)NCc1ccc(-c2ccccc2)cc1)c1ccccn1` [Example 354, N-(3-(((biphenyl-4-ylmethyl)amino)carbonyl)-1H-pyrazol-4-yl)pyridine-2-carboxamide], the IC50 was under 100 nM.

Turning to `CC(=O)Nc1cccc(C(=O)Nc2c[nH]nc2C(=O)NCCCOC(C)C)c1` [Example 385, 4-((3-(acetylamino)benzoyl)amino)-N-(3-isopropoxypropyl)-1H-pyrazole-3-carboxamide], the IC50 was under 100 nM.

For `O=C(Nc1c[nH]nc1C(=O)NCc1ccco1)c1ccccc1` [compound 152], the IC50 is under 100 nM.

Turning to `O=C(Nc1c[nH]nc1C(=O)NCCOc1ccccc1)c1ccccn1` [Example 355, N-(3-(((2-phenoxyethyl)amino)carbonyl)-1H-pyrazol-4-yl)pyridine-2-carboxamide], the IC50 was under 100 nM.

As to `N#CCNC(=O)c1n[nH]cc1NC(=O)c1ccccn1` [Example 395, N-(3-(((cyanomethyl)amino)carbonyl)-1H-pyrazol-4-yl)pyridine-2-carboxamide], the IC50 was under 100 nM.

On to `O=C(NCCc1ccccc1)c1n[nH]cc1NC(=O)C1CCCCC1` [Example 124, 4-[(cyclohexylcarbonyl)amino]-N-(2-phenylethyl)-1H-pyrazole-3-carboxamide], for which the IC50 is under 100 nM.

With `O=C(Nc1c[nH]nc1C(=O)NCc1ccccc1)c1cnccn1` [Example 119, N-{3-[(benzylamino)carbonyl]-1H-pyrazol-4-yl}pyrazine-2-carboxamide], the IC50 was under 100 nM.

Take `CC(C)NC(=O)c1n[nH]cc1NC(=O)c1ccccc1` [compound 027]: the IC50 is under 100 nM.

As for `O=C(Nc1ccccc1)c1n[nH]cc1NC(=O)c1c[nH]c2ccccc12` [compound 097], the IC50 is under 100 nM.

Turning to `O=C(Nc1c[nH]nc1C(=O)NCCc1ccccc1)c1ccccn1` [Example 338, N-(3-(((2-phenylethyl)amino)carbonyl)-1H-pyrazol-4-yl)pyridine-2-carboxamide], the IC50 is under 100 nM.

Consider `O=C(NC1CCCC1)c1n[nH]cc1NC(=O)c1c(F)cccc1F` [Example 366, N-cyclopentyl-4-((2,6-difluorobenzoyl)amino)-1H-pyrazole-3-carboxamide], for which the IC50 was under 100 nM.

`O=C(CC1CCCC1)Nc1c[nH]nc1C(=O)NCc1ccco1` [Example 143, 4-[(cyclopentylacetyl)amino]-N-(2-furylmethyl)-1H-pyrazole-3-carboxamide]: the IC50 was found to be 155 nM.

Regarding `CC(=O)Nc1cccc(C(=O)Nc2c[nH]nc2C(=O)NCC#N)c1` [Example 380, 4-((3-(acetylamino)benzoyl)amino)-N-(cyanomethyl)-1H-pyrazole-3-carboxamide], the IC50 is under 100 nM.

On to `O=C(Nc1c[nH]nc1C(=O)NCc1ccccc1)c1ccccn1` [Example 337, N-(3-((benzylamino)carbonyl)-1H-pyrazol-4-yl)pyridine-2-carboxamide], for which the IC50 was under 100 nM.

On to `O=C(CCc1ccccc1)Nc1c[nH]nc1C(=O)NCCc1ccccc1` [Example 128, N-(2-phenylethyl)-4-[(3-phenylpropanoyl)amino]-1H-pyrazole-3-carboxamide], for which the IC50 is under 100 nM.

On to `O=C(Nc1c[nH]nc1C(=O)NCc1ccco1)c1ccc(Oc2ccccc2)cc1` [compound 157], for which the IC50 worked out at 140 nM.

Turning to `O=C(Cc1c[nH]c2ccccc12)Nc1c[nH]nc1C(=O)NCCc1ccccc1` [Example 130, 4-[(1H-indol-3-ylacetyl)amino]-N-(2-phenylethyl)-1H-pyrazole-3-carboxamide], the IC50 worked out at 128 nM.

Take `O=C(/C=C/c1ccccc1)Nc1c[nH]nc1C(=O)NCc1ccco1` [Example 148, N-(2-furylmethyl)-4-{[(2E)-3-phenylprop-2-enoyl]amino}-1H-pyrazole-3-carboxamide]: the IC50 stood at 388 nM.

Consider `O=C(Nc1c[nH]nc1C(=O)NCc1ccco1)c1ccccn1` [Example 347, N-(3-(((2-furylmethyl)amino)carbonyl)-1H-pyrazol-4-yl)pyridine-2-carboxamide], for which the IC50 was under 100 nM.

`CC1(C)C2CC[C@@]1(CS(=O)(=O)Nc1c[nH]nc1C(=O)NCCc1ccccc1)C(=O)C2` [compound 305]: the IC50 was under 100 nM.

`CC(C)NC(=O)c1n[nH]cc1NC(=O)c1ccc(OC(F)(F)F)cc1` [compound 035]: the IC50 is under 100 nM.

`CCCN(CCC)S(=O)(=O)c1ccc(C(=O)Nc2c[nH]nc2C(=O)NCCc2ccccc2)cc1` [Example 136, 4-({4-[(dipropylamino)sulfonyl]benzoyl}amino)-N-(2-phenylethyl)-1H-pyrazole-3-carboxamide]: the IC50 worked out at 485 nM.

In the case of `COc1cccc(C(=O)Nc2c[nH]nc2C(=O)NCCC#N)c1` [Example 414, N-(2-cyanoethyl)-4-(3-methoxybenzoylamino)-1H-pyrazole-3-carboxamide], the IC50 was under 100 nM.

Consider `CC(C)NC(=O)c1n[nH]cc1NC(=O)C1CCCCC1` [compound 020], for which the IC50 is under 100 nM.
